# Experimental data published in patent publication US8680113B2, “BMI-1 protein expression modulators” (PTC Therapeutics, Inc., priority 2008, dated 2014).
# Read-outs that look alike come from different tables or passages of the source.
# Key:
# [1] = tested on: Jeko, Mino and Rec-1 cells; assay: cells; format: cell-based; conditions: 72 h, read-out: decrease in cell viability
# [2] = tested on: HT1080 cells (human fibrosarcoma cells); format: in vivo, nude mice
# Experimental: (§1) HT1080 cells (human fibrosarcoma cells) were implanted subcutaneously in nude mice. After seven days, mice were administered compounds subcutaneously at 30 or 60 mg/kg/day for ten days. The tumors were then excised from mice and homogenized in Tris-HCl buffer containing a cocktail of proteinase inhibitors. Intratumor Bmi-1 levels were subsequently measured using the Bmi-1 ELISA assay of Example 1. Protein concentrations of the homogenates were measured with a Bio-Rad Protein assay kit and intratumor Bmi-1 levels were normalized to the protein concentrations. Treatment with the compound for ten days inhibited tumor growth by 35% as compared to the vehicle-treated control groups. […] Since p27 expression is not regulated by Bmi-1 activity, no changes in the levels of this protein were observed within treated tumors.
# p27 = assay: In-Vivo Xenograft Model: intratumor p27 levels (control); design: species or system nude mice; conditions: subcutaneously at 30 or 60 mg/kg/day for ten days
# Experimental: as §1
# Bmi-1 [3] = assay: Cell Model Assay: Bmi-1 expression in K562; format: cell-based; conditions: K562 (chronic myelogenous leukemia)
# Experimental: (§2) Using assay conditions known to those skilled in the art, the ability of the compounds described herein to reduce Bmi-1 expression in HT1080 (fibrosarcoma), U87-MG (glioblastoma), T98G (glioblastoma), K562 (chronic myelogenous leukemia) and KG1 (acute myelogenous leukemia) cell lines was tested (at test compound concentrations calculated from the ELISA assay data shown in Example 1) compared to puromycin as a control to provide the EC50 values shown in Table 2. The term “ND” means that data was not determined.
# Bmi-1 [4] = assay: Cell Model Assay: Bmi-1 expression in KG1; format: cell-based; conditions: KG1 (acute myelogenous leukemia)
# Experimental: as §2
# Bmi-1 [5] = assay: In-Vivo Xenograft Model: intratumor Bmi-1 levels by Bmi-1 ELISA; design: species or system nude mice; conditions: subcutaneously at 30 or 60 mg/kg/day for ten days, compared to the vehicle control (p<0.002)
# Experimental: as §1
# Bmi-1 [6] = assay: Cell Model Assay: Bmi-1 expression in T98G; format: cell-based; conditions: T98G (glioblastoma)
# Experimental: as §2
# [7] = tested on: Jeko, Mino and Rec1 MCL-cell lines; assay: Cell Cycle Analysis (propidium iodide flow cytometry); format: cell-based; conditions: MCL cells, 60 nM, FIG. 3
# Experimental: Cell cycle analysis was performed for MCL-cell lines treated with Bmi-1 inhibitor Compounds 1 (data not shown), 14 and 49 (data not shown). For example, Jeko, Mino and Red cells treated with BMI-1 inhibitor Compound 14 at concentrations of 60 nM, 75 nM, and 60 nM, respectively were cultured in T-25 flasks for 24, 48 and 72 hours in 37° C. About 1×10^6 cells were harvested, washed with PBS, fixed with ice-cold 70% ethanol, and treated with 1 mg/ml RNase A (Invitrogen; Carlsbad, Calif.). Cells were then stained with 5 μL 1 mg/mL Propidium Iodide (Sigma-Aldrich; St. Louis, Mo.), incubated in ice for at least 1 hr, and the cell cycle profile was determined using flow cytometry analysis. The same protocol was followed for cell cycle analysis of Jeko, Mino, and Rec1 cell lines treated with Compounds 1 (data not shown) and 49 (data not shown).
# Bmi-1 [8] = assay: Western Blot Analysis: Bmi-1 levels in MCL cell lines; format: cell-based; conditions: MCL cells cultured for 72 hrs, FIG. 2
# Experimental: (§3) Western Blot analysis was used to determine cytoplasmic protein levels of Bmi-1 and activation of key executioner proteins (Caspases 3, 7, 8, 9) involved in apoptosis. Protein levels were measured in Bmi-1 inhibitor-treated mantle cell lymphoma cell lines. […] Cells were harvested at each time point, washed with ice-cold PBS, and lysed with 1× lysis buffer (20 mM Tris-HCl (pH 7.5), 150 mM NaCl, 1 mM Na2EDTA, 1 mM EGTA, 1% Triton, 2.5 mM sodium pyrophosphate, 1 mM beta-glycerophosphate, 1 mM Na3VO4, 1 μg/ml leupeptin; Cell Signaling Technology; Danvers, Mass.). Protein concentrations were determined using Pierce BCA protein assay (Thermo Scientific; Rockford, Ill.). Electrophoresis of cell lysates (25 μg) were performed with Mini Protean Systems by Bio-Rad Laboratories and run in Bio-Rad Readymade Pre-Cast Gels (4-20% Tris-HCl gels). Proteins were transferred onto PVDF membrane (Bio-Rad), and immunoblotted with anti-Bmi-1-clone F6 antibody (Millipore; Temecula, Calif.) and Caspases 3, 7, 8 and 9 (Cell Signaling Technology; Danvers, Mass.).
# [9] = tested on: Caspases 3, 7, 8, 9 and PARP; assay: Western Blot Analysis: activation of apoptosis proteins in MCL cell lines; format: cell-based; conditions: MCL cells cultured for 72 hrs, FIG. 2
# Experimental: as §3
# MCL-Jeko = assay: Mantle Cell Lymphoma Assay: cytotoxicity, Jeko; format: cell-based; conditions: MCL-Jeko, 72 hrs
# Text: MCL cell lines Jeko, Mino, and Rec-1 were provided by American Type Culture Collection: The Bioresource Center (Manassas, Va.). […] Carlsbad, Calif.) in T-75 culture flasks. Cell concentration was maintained between 2 to 3×10^5 cells/mL. Early passage cells (passages 2-4) were used for all experiments. Ficoll-Histopaque density sedimentation (Sigma Aldrich) was used for separation of debris and purification of cell lines prior to experiments. […] The cytotoxic effect of test compounds on the MCL-cell lines was assessed by measuring cell concentration and cell viability using a Beckman Coulter Vi-Cell Counter. Controls and treated cells were harvested and counted at day 3.
structure (smiles),measurement,setting,value
"COc1cc(Br)c(Nc2nc(-c3c(C)nc4ncccn34)cs2)c(Br)c1 [Cpd 1, N-(2,6-dibromo-4-methoxyphenyl)-4-(2-methylimidazo[1,2-a]pyrimidin-3-yl)thiazol-2-amine]",cytotoxicity at 0.08 µM,"[1]; Jeko, Mino and Rec-1 cells, 80 nM, 75 nM and 80 nM, after 3 days of treatment",70 to 90%
same,toxicity within treated mice,[2]; over the 10 day experiment,no toxicity was observed
same,inhibited tumor growth,"[2]; subcutaneously at 30 or 60 mg/kg/day for ten days, compared to vehicle-treated control groups",35%
same,p27 levels within treated tumors,p27,no changes
same,EC50,Bmi-1 [3],374 nM
same,EC50,Bmi-1 [4],321 nM
same,reduced intratumor Bmi-1 protein levels,Bmi-1 [5],67%
same,EC50,Bmi-1 [6],220 nM
"COc1ccc(Nc2nc(-c3c(C)nc4ncccn34)cs2)cc1 [Cpd 14, N-(4-methoxyphenyl)-4-(2-methylimidazo[1,2-a]pyrimidin-3-yl)thiazol-2-amine]",cytotoxicity at 0.08 µM,[1],70 to 90%
same,DNA content,[7]; at 48 and 72 hrs,increase in DNA content
same,cell cycle profile,[7]; at 24 hrs,G2/M block
same,Bmi-1 levels,Bmi-1 [8],time dependant decrease
same,EC50,Bmi-1 [6],< 4 nM
same,activation of Caspase-9 and PARP,[9],activation of Caspase-9 and PARP
same,Cell Concentration (×10^6),MCL-Jeko; 0.004 μM,1.83 ± 0.03 ×10^6
same,viability at 0.004 µM,"MCL-Jeko; 0.004 μM, read-out: Cell Viability (%)",74.9 ± 0.55%
same,Cell Concentration (×10^6),MCL-Jeko; 0.037 μM,1.63 ± 0.05 ×10^6
same,viability at 0.037 µM,"MCL-Jeko; 0.037 μM, read-out: Cell Viability (%)",69.4 ± 1.63%
same,Cell Concentration (×10^6),MCL-Jeko; 0.11 μM,0.07 ± 0.01 ×10^6
same,viability at 0.11 µM,"MCL-Jeko; 0.11 μM, read-out: Cell Viability (%)",6.5 ± 0.55%
same,Cell Concentration (×10^6),MCL-Jeko; 0.33 μM,0.02 ± 0.00 ×10^6
same,viability at 0.33 µM,"MCL-Jeko; 0.33 μM, read-out: Cell Viability (%)",1.9 ± 0.31%
same,Cell Concentration (×10^6),MCL-Jeko; 1 μM,0.02 ± 0.00 ×10^6
same,viability at 1 µM,"MCL-Jeko; 1 μM, read-out: Cell Viability (%)",1.6 ± 0.26%
same,Cell Concentration (×10^6),MCL-Jeko; 3 μM,0.03 ± 0.00 ×10^6
same,viability at 3 µM,"MCL-Jeko; 3 μM, read-out: Cell Viability (%)",2.5 ± 0.35%
